Converted amounts (≈) assume the structure as drawn.

For 1 compound, MIC results are on record in ChEMBL document CHEMBL4354828, “Discovery of Taniborbactam (VNRX-5133): A Broad-Spectrum Serine- and Metallo-β-lactamase Inhibitor for Carbapenem-Resistant Bacterial Infections” (J Med Chem, 2020).

What all share (assay type): functional
For experiment [1], the system named is Klebsiella pneumoniae. The experiment can be described thus: Antibacterial activity against Klebsiella pneumoniae A-1797 expressing KPC-2/VIM-4/CMY-4 after 16 to 20 hrs by CLSI-based microbroth dilution method. For orientation: Broth dilution looks for growth in wells or tubes with falling amounts of substance.
The subject of a further experiment is Enterobacter cloacae. Description: Antibacterial activity against Enterobacter cloacae 144200 expressing p99 AmpC after 16 to 20 hrs by CLSI-based microbroth dilution method.
Experiment [2] relates to Klebsiella pneumoniae. The experiment can be described thus: Antibacterial activity against Klebsiella pneumoniae 11978 expressing OXA-48 after 16 to 20 hrs by CLSI-based microbroth dilution method.
The test system of experiment [3] is Pseudomonas aeruginosa. Description: Antibacterial activity against wild type Pseudomonas aeruginosa 27853 after 16 to 20 hrs by CLSI-based microbroth dilution method.
In experiment [4] the test system is Klebsiella pneumoniae. The experiment can be described thus: Antibacterial activity against Klebsiella pneumoniae UMM expressing SHV5/KPC-2/TEM-1 after 16 to 20 hrs by CLSI-based microbroth dilution method.
The test system of a further experiment is Klebsiella aerogenes. The experiment can be described thus: Antibacterial activity against Enterobacter aerogenes 188548 expressing AmpC after 16 to 20 hrs by CLSI-based microbroth dilution method.
Experiment [5] concerns Escherichia coli. Description: Antibacterial activity against wild type Escherichia coli ATCC 25922 after 16 to 20 hrs by CLSI-based microbroth dilution method.
The subject of experiment [6] is Pseudomonas aeruginosa. The experiment can be described thus: Antibacterial activity against Pseudomonas aeruginosa Ps296 AmpC/VIM-2/TEM-1 after 16 to 20 hrs by CLSI-based microbroth dilution method.
The test system of experiment [7] is Staphylococcus aureus. Description: Antibacterial activity against wild type Staphylococcus aureus ATCC 29213 after 16 to 20 hrs by CLSI-based microbroth dilution method.
Experiment [8] concerns Klebsiella pneumoniae. The experiment can be described thus: Antibacterial activity against wild type Klebsiella pneumoniae CI 09 after 16 to 20 hrs by CLSI-based microbroth dilution method.
In experiment [9] the test system is Escherichia coli. The experiment can be described thus: Antibacterial activity against Escherichia coli J53 expressing SHV5/ AmpC/TEM-1 after 16 to 20 hrs by CLSI-based microbroth dilution method.
Experiment [10] relates to Staphylococcus aureus. The experiment can be described thus: Antibacterial activity against methicillin resistant Staphylococcus aureus 33591 after 16 to 20 hrs by CLSI-based microbroth dilution method.

As for `Cc1onc(-c2ccccc2)c1C(=O)N[C@@H]1C(=O)N2[C@@H]1SC(C)(C)[C@@H]2C(=O)O` [OXACILLIN], the MIC against Klebsiella pneumoniae [1], against Enterobacter cloacae, with Klebsiella pneumoniae [2], against Pseudomonas aeruginosa [3], in the experiment with Klebsiella pneumoniae [4] and with Klebsiella aerogenes was greater than 128 µg/mL in each case. Besides, the MIC (usually the lowest concentration that inhibits growth of the organism) in the experiment on Escherichia coli [5] was greater than 128 µg/mL; against Pseudomonas aeruginosa [6], greater than 128 µg/mL; with Staphylococcus aureus [7], 0.125 µg/mL (≈ 0.311 µM); against Klebsiella pneumoniae [8] it was greater than 128 µg/mL; in the experiment with Escherichia coli [9], greater than 128 µg/mL; against Staphylococcus aureus [10], greater than 128 µg/mL.
